Data reported in publication PMC7327383, “The affinity and selectivity of α‐adrenoceptor antagonists, antidepressants, and antipsychotics for the human α1A, α1B, and α1D‐adrenoceptors” (Pharmacology Research & Perspectives, 2020).
Where two headings read alike, the source gives them in different places.

Legend:
[1] = target: T1, human α1B-adrenoceptor (Homo sapiens, UniProt P35368); test: [3H]prazosin whole-cell competition binding, CHO-α1B cells; conditions: for Selectivity ratio α1B vs α1D: ratio of KD values, higher α1B affinity, 1.0 under vs = none
T1 construct: CHO cells stably expressing either the full‐length human α1A, α1B, or α1D‐adrenoceptor
T1 sequence (P35368 1-520): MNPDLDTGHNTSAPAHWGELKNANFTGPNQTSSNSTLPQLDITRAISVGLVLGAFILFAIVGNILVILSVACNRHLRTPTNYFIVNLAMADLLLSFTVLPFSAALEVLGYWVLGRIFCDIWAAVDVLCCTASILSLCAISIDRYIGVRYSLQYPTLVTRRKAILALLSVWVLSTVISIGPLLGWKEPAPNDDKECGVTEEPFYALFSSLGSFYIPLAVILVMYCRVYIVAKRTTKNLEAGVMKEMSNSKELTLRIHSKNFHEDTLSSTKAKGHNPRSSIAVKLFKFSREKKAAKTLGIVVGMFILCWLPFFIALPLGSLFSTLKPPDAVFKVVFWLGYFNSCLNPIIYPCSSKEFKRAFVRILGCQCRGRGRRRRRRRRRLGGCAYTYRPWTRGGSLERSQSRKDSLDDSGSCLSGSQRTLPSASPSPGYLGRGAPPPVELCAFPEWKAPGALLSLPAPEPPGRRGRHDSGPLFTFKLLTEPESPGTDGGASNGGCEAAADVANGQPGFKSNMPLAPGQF

[2] = target: T2, full-length human α1D-adrenoceptor (Homo sapiens, UniProt P25100); test: [3H]prazosin whole-cell competition binding, CHO-α1D cells
T2 sequence (P25100 1-572): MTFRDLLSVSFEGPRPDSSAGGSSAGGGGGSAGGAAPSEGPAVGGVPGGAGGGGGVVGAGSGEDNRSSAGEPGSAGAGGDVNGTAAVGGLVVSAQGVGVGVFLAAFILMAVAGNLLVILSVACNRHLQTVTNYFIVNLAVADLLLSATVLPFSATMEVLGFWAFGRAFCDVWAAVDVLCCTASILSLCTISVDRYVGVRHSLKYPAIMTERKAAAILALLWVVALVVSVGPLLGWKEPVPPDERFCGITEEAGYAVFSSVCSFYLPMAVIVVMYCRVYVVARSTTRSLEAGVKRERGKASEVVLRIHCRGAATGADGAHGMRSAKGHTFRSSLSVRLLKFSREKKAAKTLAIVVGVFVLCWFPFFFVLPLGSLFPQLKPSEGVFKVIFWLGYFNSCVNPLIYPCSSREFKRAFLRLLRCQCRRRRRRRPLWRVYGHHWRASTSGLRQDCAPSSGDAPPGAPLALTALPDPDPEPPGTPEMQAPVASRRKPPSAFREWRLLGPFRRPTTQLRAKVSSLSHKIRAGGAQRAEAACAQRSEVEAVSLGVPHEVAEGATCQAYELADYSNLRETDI

[3] = target: T3, human α1A-adrenoceptor (Homo sapiens, UniProt P35348); test: [3H]prazosin whole-cell competition binding, CHO-α1A cells
T3 construct: CHO cells stably expressing either the full‐length human α1A, α1B, or α1D‐adrenoceptor
T3 sequence (P35348 1-466): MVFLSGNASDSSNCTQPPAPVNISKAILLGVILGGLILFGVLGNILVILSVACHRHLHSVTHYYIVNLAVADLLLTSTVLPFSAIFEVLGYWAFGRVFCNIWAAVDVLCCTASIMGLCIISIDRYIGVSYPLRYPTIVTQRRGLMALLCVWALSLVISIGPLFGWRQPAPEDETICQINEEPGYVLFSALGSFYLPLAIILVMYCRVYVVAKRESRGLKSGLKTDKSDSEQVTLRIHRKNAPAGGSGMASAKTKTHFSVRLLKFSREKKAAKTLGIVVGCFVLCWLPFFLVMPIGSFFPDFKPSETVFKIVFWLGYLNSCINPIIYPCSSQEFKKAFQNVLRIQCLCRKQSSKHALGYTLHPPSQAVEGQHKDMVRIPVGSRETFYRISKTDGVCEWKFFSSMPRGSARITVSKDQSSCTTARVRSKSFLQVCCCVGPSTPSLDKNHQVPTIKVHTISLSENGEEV

[4] = single-component inhibition curve, given as log KD (negative), mean ± SE mean, read-out: Log KD α1B (converted)
[5] = Log KD α1D, single-component inhibition curve, given as log KD (negative), mean ± SE mean
[6] = ratio of KD values, higher α1A affinity, 1.0 under vs = none
[7] = ratio of KD values, printed under α1A = higher α1A affinity, 1.0 under vs = none
[8] = single-component inhibition curve, given as log KD (negative), mean ± SE mean, read-out: Log KD α1A (converted)
[9] = ratio, 1 = no selectivity for a subtype over another
[10] = ratio of KD values, higher α1D affinity (site 1 KD)

Compound | Kd [1, 4] | Kd [2, 5] | Selectivity ratio α1A vs α1D [3, 6] | Selectivity ratio α1A vs α1B [3, 7] | Kd [3, 8] | selectivity α1B vs α1D [1, 9] | Selectivity ratio α1B vs α1D [2, 10] | other results
CN1CCc2cccc(Cl)c2CC1 [SKF86466] |  |  |  |  |  |  |  | Kd [1]: 11.7 µM; selectivity α1B vs α1D [1]: 1.7; Kd [2]: 6.92 µM; Selectivity ratio α1B vs α1D [2]: 1.7 fold; Kd [3]: 0.871 µM; Selectivity ratio α1A vs α1B [3]: 13 fold; Selectivity ratio α1A vs α1D [3]: 7.9 fold; selectivity α1A vs α1B [3]: 13.5
O=C1NCCN1CCN1CCC(c2cn(-c3ccc(F)cc3)c3ccc(Cl)cc23)CC1 [Sertindole] | 0.00525 µM | 0.117 µM | 219 fold | 9.8 fold | 0.000537 µM |  |  | Selectivity ratio α1B vs α1D [1]: 22 fold
CN[C@H]1CC[C@@H](c2ccc(Cl)c(Cl)c2)c2ccccc21 [Sertraline] | 3.55 µM | 2.45 µM |  |  | 1.91 µM |  |  | selectivity α1B vs α1D [1]: 1.4; Selectivity ratio α1B vs α1D [2]: 1.4 fold; Selectivity ratio α1A vs α1B [3]: 1.9 fold; Selectivity ratio α1A vs α1D [3]: 1.3 fold
C[C@H](Cc1cc2c(c(C(N)=O)c1)N(CCCO)CC2)NCCOc1ccccc1OCC(F)(F)F [Silodosin] | 0.316 µM | 0.115 µM | 468 fold | 1288 fold | 0.000245 µM | 2.8 | 2.8 fold | Kd ([3]; subtype not given, ligands with α1A selectivity (Table 1: α1A), read-out: affinity): < 0.00025 µM
O=C1NCN(c2ccccc2)C12CCN(CC1COc3ccccc3O1)CC2 (stereo not drawn) [Spiroxatrine] | 0.389 µM |  |  | 2.8 fold | 0.138 µM | 28 | 28 fold | Kd ([2]; Log KD α1D site 1, high-affinity component of two-component curve, control, used for selectivity): 0.0138 µM; Log KD α1D site 2 ([2]; low-affinity component of two-component curve, control): −5.84 ± 0.31; % site 1 α1D ([2]; percentage of inhibition through first component, control): 61.9 ± 4.0% site 1; Selectivity ratio α1A vs α1D [2, 10]: 10 fold; % site 1 α1D ([2]; two-component inhibition curve, proportion of site 1): -7.86 ± 0.13 -5.84 ± 0.31 61.9 ± 4.0% site 1; selectivity α1A vs 1D [3, 9]: 10
CCN1CCCC1CNC(=O)c1cc(S(N)(=O)=O)ccc1OC (stereo not drawn) [Sulpiride] |  |  | 6.9 fold | >32 fold | 31.6 µM | >4.6 | >4.6 fold | Kd ([2]; Log KD α1D (apparent), app: top concentration inhibited most but not all specific binding, curve extrapolated): 219 ± 5.38 µM; selectivity α1A vs α1B [3, 9]: >31
O=C1CCC(=O)N1C[C@H]1CC[C@H]2CN(c3ncccn3)CCN2C1 [Sunepitron] | 22.4 µM | 4.68 µM | 2.8 fold | 13 fold | 1.66 µM | 4.8 | 4.8 fold | 
COc1ccccc1N1CCN(CCCNc2cc(=O)n(C)c(=O)n2C)CC1 [Urapidil] | 3.16 µM | 0.427 µM | 6.9 fold | 51 fold | 0.0617 µM | 7.4 | 7.4 fold | 
COc1ccc(C(CN(C)C)C2(O)CCCCC2)cc1 (stereo not drawn) [Venlafaxime] |  |  |  | >4.9 fold |  | >24 | >24 fold | Log KD α1B: result in words ([1]; no inhibition of [3H]prazosin binding at maximum concentration possible): No binding to 1 mmol/L; binding at α1B ([1]; result in words in the Log KD α1B column): No binding to 1mM; binding at α1B (result in words) ([1]; up to the maximum concentration): No binding to 1mM; Selectivity ratio α1A vs α1D [2, 10]: 4.9 fold; Log KD α1D ([2]; single-component inhibition curve, given as log KD (negative), mean ± SE mean): −4.38 ± 0.16; Log KD α1A (apparent) ([3]; app: top concentration inhibited most but not all specific binding, curve extrapolated): −3.69 ± 0.02^app; selectivity α1A vs 1D [3, 9]: 4.9
Cc1ccc(Sc2ccccc2N2CCNCC2)c(C)c1 [Vortioxetine] | 3.8 µM | 3.72 µM | 7.8 fold | 7.9 fold | 0.479 µM |  |  | Selectivity ratio α1B vs α1D [1]: 1.0 fold
O=C1Cc2cc(CCN3CCN(c4nsc5ccccc45)CC3)c(Cl)cc2N1 [Ziprasidone] | 0.02 µM | 0.0631 µM | 34 fold | 11 fold | 0.00186 µM |  |  | Selectivity ratio α1B vs α1D [1]: 3.2 fold
Labetolol |  |  |  |  |  |  |  | selectivity α1B vs α1D [1]: 1.6; Selectivity ratio α1B vs α1D [2]: 1.6 fold; Selectivity ratio α1A vs α1B [3]: 26 fold; Selectivity ratio α1A vs α1D [3]: 16 fold
